Test results: patent publication US12577245B2, “Sulfonyl benzamide derivatives as Bcl-2 inhibitors” (ASCENTAGE PHARMA (SUZHOU) CO., LTD., priority 2021, dated 2026)

Tests used:
RS4; 11Bcl-2-G101V cells = experiment: CellTiter-Glo (CTG) cell viability assay in RS4;11-Bcl-2-G101V cells; format: cell-based; settings: 72 h, 10% FBS, 3 days
Outline: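 Luminescent ATP read-out (CellTiter-Glo) after 3-day compound treatment at 37 °C gave viability relative to vehicle, from which IC50 was fitted. Mutant Bcl-2 RS4;11 cells were seeded at 10000 per well and rested 4 h before dosing.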

MV-4-11 cells = experiment: CCK-8 cell viability assay in MV-4-11 cells; format: cell-based; settings: Homo sapiens, MV4-11, 72 h, 10% FBS, 3 days
Outline: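 IC50 values come from vehicle-normalized CCK-8 absorbance at 450 nm, read 1–4 h after reagent addition. Before that, MV-4-11 cells seeded at 20000 per well were cultured 3 days at 37 °C with a compound dilution series.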

Bcl-2 WT = Bcl-2 WT (Homo sapiens, UniProt P10415); experiment: Bcl-2 WT inhibition, fluorescence polarization (Flu-BIM tracer) binding assay; settings: FP; 20 nM Bcl2, 5 nM Flu-BIM, 1 h incubation; read-out: Bcl-2 w.t. (FP)
Bcl-2 WT, sequence (P10415 whole entry): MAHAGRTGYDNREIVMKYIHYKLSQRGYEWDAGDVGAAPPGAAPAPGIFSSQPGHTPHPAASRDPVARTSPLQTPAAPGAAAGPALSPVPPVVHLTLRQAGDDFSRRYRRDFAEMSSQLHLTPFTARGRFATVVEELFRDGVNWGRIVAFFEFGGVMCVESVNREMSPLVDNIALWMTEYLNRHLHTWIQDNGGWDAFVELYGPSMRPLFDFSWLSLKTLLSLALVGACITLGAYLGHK

| SMILES | IC50 (RS4; 11Bcl-2-G101V cells) | IC50 (MV-4-11 cells) | IC50 (Bcl-2 WT) |
| --- | --- | --- | --- |
| CC1(C)CCC(CN2CCN(c3ccc(C(=O)NS(=O)(=O)c4ccc(NC[C@H]5COCCO5)c([N+](=O)[O-])c4)c(Oc4cnc5[nH]ccc5c4)c3)CC2)=C(c2cc(-c3ccc(C(F)(F)F)cc3)cs2)C1 [Example 40, (S)—N-((4-(((1,4-dioxan-2-yl)methyl)amino)-3-nitrophenyl)sulfonyl)-2-((1H-pyrrolo[2,3-b]pyridin-5-yl)oxy)-4-(4-((4,4-dimethyl-2-(4-(4-(trifluoromethyl)phenyl)thiophen-2-yl)cyclohex-1-en-1-yl)methyl)piperazin-1-yl)benzamide] | 3550 nM | 45 nM | 40.2 nM |
| CC1(C)CCC(CN2CCN(c3ccc(C(=O)NS(=O)(=O)c4ccc(NC[C@H]5CC[C@](C)(O)CC5)c([N+](=O)[O-])c4)c(Oc4cnc5[nH]ccc5c4)c3)CC2)=C(c2cc(-c3ccc(C(F)(F)F)cc3)cs2)C1 [Example 41, 2-((1H-pyrrolo[2,3-b]pyridin-5-yl)oxy)-4-(4-((4,4-dimethyl-2-(4-(4-(trifluoromethyl)phenyl)thiophen-2-yl)cyclohex-1-en-1-yl)methyl)piperazin-1-yl)-N-((4-((((1r,4r)-4-hydroxy-4-methylcyclohexyl)methyl)amino)-3-nitrophenyl)sulfonyl)benzamide] | 3230 nM | 50 nM | 44 nM |
| CC1(C)CCC(CN2CCN(c3ccc(C(=O)NS(=O)(=O)c4ccc(NC[C@H]5COCCO5)c([N+](=O)[O-])c4)c(Oc4cnc5[nH]ccc5c4)c3)CC2)=C(c2cc(-c3ccc(F)cc3F)cs2)C1 [Example 42, (S)—N-((4-(((1,4-dioxan-2-yl)methyl)amino)-3-nitrophenyl)sulfonyl)-2-((1H-pyrrolo[2,3-b]pyridin-5-yl)oxy)-4-(4-((2-(4-(2,4-difluorophenyl)thiophen-2-yl)-4,4-dimethylcyclohex-1-en-1-yl)methyl)piperazin-1-yl)benzamide] | 480 nM | 26 nM | 38.7 nM |
| CC1(C)CCC(CN2CCN(c3ccc(C(=O)NS(=O)(=O)c4ccc(NC[C@H]5CC[C@](C)(O)CC5)c([N+](=O)[O-])c4)c(Oc4cnc5[nH]ccc5c4)c3)CC2)=C(c2cc(-c3ccc(F)cc3F)cs2)C1 [Example 43, 2-((1H-pyrrolo[2,3-b]pyridin-5-yl)oxy)-4-(4-((2-(4-(2,4-difluorophenyl)thiophen-2-yl)-4,4-dimethylcyclohex-1-en-1-yl)methyl)piperazin-1-yl)-N-((4-((((1r,4r)-4-hydroxy-4-methylcyclohexyl)methyl)amino)-3-nitrophenyl)sulfonyl)benzamide] | 280 nM | 8 nM | 21.1 nM |
| CC1(C)CCC(CN2CCN(c3ccc(C(=O)NS(=O)(=O)c4ccc(NC[C@H]5COCCO5)c([N+](=O)[O-])c4)c(Oc4cnc5[nH]ccc5c4)c3)CC2)=C(c2cc(-c3ccc(Cl)cc3F)cs2)C1 [Example 44, (S)—N-((4-(((1,4-dioxan-2-yl)methyl)amino)-3-nitrophenyl)sulfonyl)-2-((1H-pyrrolo[2,3-b]pyridin-5-yl)oxy)-4-(4-((2-(4-(4-chloro-2-fluorophenyl)thiophen-2-yl)-4,4-dimethylcyclohex-1-en-1-yl)methyl)piperazin-1-yl)benzamide] | 830 nM | 31 nM | 31 nM |
| CC1(C)CCC(CN2CCN(c3ccc(C(=O)NS(=O)(=O)c4ccc(NC[C@H]5CC[C@](C)(O)CC5)c([N+](=O)[O-])c4)c(Oc4cnc5[nH]ccc5c4)c3)CC2)=C(c2cc(-c3cc(F)c(F)c(F)c3)cs2)C1 [Example 45, 2-((1H-pyrrolo[2,3-b]pyridin-5-yl)oxy)-4-(4-((4,4-dimethyl-2-(4-(3,4,5-trifluorophenyl)thiophen-2-yl)cyclohex-1-en-1-yl)methyl)piperazin-1-yl)-N-((4-((((1r,4r)-4-hydroxy-4-methylcyclohexyl)methyl)amino)-3-nitrophenyl)sulfonyl)benzamide] | 1680 nM | 57 nM | 33.8 nM |
| CC1(C)CCC(CN2CCN(c3ccc(C(=O)NS(=O)(=O)c4ccc(NC[C@H]5CC[C@](C)(O)CC5)c([N+](=O)[O-])c4)c(Oc4cnc5[nH]ccc5c4)c3)CC2)=C(c2cc(-c3ccc(F)c(F)c3F)cs2)C1 [Example 46, 2-((1H-pyrrolo[2,3-b]pyridin-5-yl)oxy)-4-(4-((4,4-dimethyl-2-(4-(2,3,4-trifluorophenyl)thiophen-2-yl)cyclohex-1-en-1-yl)methyl)piperazin-1-yl)-N-((4-((((1r,4r)-4-hydroxy-4-methylcyclohexyl)methyl)amino)-3-nitrophenyl)sulfonyl)benzamide] | 230 nM | 9 nM | 22.5 nM |
| CC1(C)CCC(CN2CCN(c3ccc(C(=O)NS(=O)(=O)c4ccc(NC[C@H]5COCCO5)c([N+](=O)[O-])c4)c(Oc4cnc5[nH]ccc5c4)c3)CC2)=C(c2cc(-c3ccc(C(F)F)cc3)cs2)C1 [Example 48, (S)—N-((4-(((1,4-dioxan-2-yl)methyl)amino)-3-nitrophenyl)sulfonyl)-2-((1H-pyrrolo[2,3-b]pyridin-5-yl)oxy)-4-(4-((2-(4-(4-(difluoromethyl)phenyl)thiophen-2-yl)-4,4-dimethylcyclohex-1-en-1-yl)methyl)piperazin-1-yl)benzamide] | 810 nM | 9 nM | 20.2 nM |
| CC1(C)CCC(CN2CCN(c3ccc(C(=O)NS(=O)(=O)c4ccc(NC[C@H]5CC[C@](C)(O)CC5)c([N+](=O)[O-])c4)c(Oc4cnc5[nH]ccc5c4)c3)CC2)=C(c2cc(-c3ccc(C(F)F)cc3)cs2)C1 [Example 49, 2-((1H-pyrrolo[2,3-b]pyridin-5-yl)oxy)-4-(4-((2-(4-(4-(difluoromethyl)phenyl)thiophen-2-yl)-4,4-dimethylcyclohex-1-en-1-yl)methyl)piperazin-1-yl)-N-((4-((((1r,4r)-4-hydroxy-4-methylcyclohexyl)methyl)amino)-3-nitrophenyl)sulfonyl)benzamide] | 420 nM | 9 nM | 38.4 nM |
| CC1(C)CCC(CN2CCN(c3ccc(C(=O)NS(=O)(=O)c4ccc(NC[C@H]5COCCO5)c([N+](=O)[O-])c4)c(Oc4cnc5[nH]ccc5c4)c3)CC2)=C(c2cc(-c3ccc(F)c(F)c3)cs2)C1 [Example 50, (S)—N-((4-(((1,4-dioxan-2-yl)methyl)amino)-3-nitrophenyl)sulfonyl)-2-((1H-pyrrolo[2,3-b]pyridin-5-yl)oxy)-4-(4-((2-(4-(3,4-difluorophenyl)thiophen-2-yl)-4,4-dimethylcyclohex-1-en-1-yl)methyl)piperazin-1-yl)benzamide] | 1950 nM | 65 nM | 30.4 nM |
| CC1(C)CCC(CN2CCN(c3ccc(C(=O)NS(=O)(=O)c4ccc(NC[C@H]5CC[C@](C)(O)CC5)c([N+](=O)[O-])c4)c(Oc4cnc5[nH]ccc5c4)c3)CC2)=C(c2cc(-c3ccc(F)c(F)c3)cs2)C1 [Example 51, 2-((1H-pyrrolo[2,3-b]pyridin-5-yl)oxy)-4-(4-((2-(4-(3,4-difluorophenyl)thiophen-2-yl)-4,4-dimethylcyclohex-1-en-1-yl)methyl)piperazin-1-yl)-N-((4-((((1r,4r)-4-hydroxy-4-methylcyclohexyl)methyl)amino)-3-nitrophenyl)sulfonyl)benzamide] | 1140 nM | 52 nM | 35.5 nM |
| CC1(C)CCC(CN2CCN(c3ccc(C(=O)NS(=O)(=O)c4ccc(NC[C@H]5CC[C@](C)(O)CC5)c([N+](=O)[O-])c4)c(Oc4cnc5[nH]ccc5c4)c3)CC2)=C(c2cc(-c3cc(F)c(F)cc3F)cs2)C1 [Example 53, 2-((1H-pyrrolo[2,3-b]pyridin-5-yl)oxy)-4-(4-((4,4-dimethyl-2-(4-(2,4,5-trifluorophenyl)thiophen-2-yl)cyclohex-1-en-1-yl)methyl)piperazin-1-yl)-N-((4-((((1r,4r)-4-hydroxy-4-methylcyclohexyl)methyl)amino)-3-nitrophenyl)sulfonyl)benzamide] | 430 nM | 9 nM | 27.8 nM |
| CC1(C)CCC(CN2CCN(c3ccc(C(=O)NS(=O)(=O)c4ccc(NC[C@H]5CC[C@](C)(O)CC5)c([N+](=O)[O-])c4)c(Oc4cnc5[nH]ccc5c4)c3)CC2)=C(c2cc(-c3c(F)ccc(F)c3F)cs2)C1 [Example 54, 2-((1H-pyrrolo[2,3-b]pyridin-5-yl)oxy)-4-(4-((4,4-dimethyl-2-(4-(2,3,6-trifluorophenyl)thiophen-2-yl)cyclohex-1-en-1-yl)methyl)piperazin-1-yl)-N-((4-((((1r,4r)-4-hydroxy-4-methylcyclohexyl)methyl)amino)-3-nitrophenyl)sulfonyl)benzamide] | 270 nM | 7 nM | 22.8 nM |
| CC1(C)CCC(CN2CCN(c3ccc(C(=O)NS(=O)(=O)c4ccc(NC[C@H]5CC[C@](C)(O)CC5)c([N+](=O)[O-])c4)c(Oc4cnc5[nH]ccc5c4)c3)CC2)=C(c2cc(-c3cc(F)cc(C#N)c3)cs2)C1 [Example 55, 2-((1H-pyrrolo[2,3-b]pyridin-5-yl)oxy)-4-(4-((2-(4-(3-cyano-5-fluorophenyl)thiophen-2-yl)-4,4-dimethylcyclohex-1-en-1-yl)methyl)piperazin-1-yl)-N-((4-((((1r,4r)-4-hydroxy-4-methylcyclohexyl)methyl)amino)-3-nitrophenyl)sulfonyl)benzamide] | 1140 nM | 72 nM | 31.2 nM |
